# Values of other authors, collected in patent US6645979B2, “(7-(3-carboxyphenyl)-4-chloroisoquinolin-1-yl)guanidine” (Pfizer Inc., priority 2000, dated 2003).
# Molecular target: urinary-type plasminogen activator (uPA, urokinase) (Homo sapiens, UniProt P00749)
# Details: general statement, no value given
compound,measurement,value
"NC(N)=Nc1ncc(Cl)c2ccc(-c3cccc(C(=O)O)c3)cc12 [Compound (I), (7-(3-carboxyphenyl)-4-chloroisoquinolin-1-yl)guanidine]",uPA antagonist potency,potent
